From the supplement of paper PMC11061612

Columns and labels:
Test in all cases: Bliss excess, mean over the matrix (fraction); higher = more synergy
[1] = tested on: SNG-M (Endometrial Carcinoma)
Outline: (§1)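 Cell lines in DMEM/F12 or RPMI with 10% FBS were plated in 1536-well plates, held 24 hours at 37°C, 5% CO2, then given two-drug dose matrices for 72 hours (DMSO typically 0.2%). Viability was read by CellTiter-Glo 2.0 luminescence and scaled as inhibition from 0 (vehicle wells) to 1 (blank wells). Combination Emax is the second-highest inhibition in the matrix; Bliss excess is observed combination effect minus expected EA + EB − EA·EB, EA and EB being single-agent effects.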

[2] = tested on: MEG-01 (Chronic Myelogenous Leukemia)
Outline: as §1

[3] = tested on: D-283MED (Other Solid Carcinomas)
Outline: as §1

[4] = tested on: EFM-192A (Breast Carcinoma)
Outline: as §1

HCC38 (Breast Carcinoma) = tested on: HCC38 (Breast Carcinoma)
Outline: as §1

[5] = tested on: KG-1 (Acute Myeloid Leukemia)
Outline: as §1

[6] = tested on: NCI-H1688 (Small Cell Lung Carcinoma)
Outline: as §1

MSTO-211H (Mesothelioma) = tested on: MSTO-211H (Mesothelioma)
Outline: as §1

[7] = tested on: NOMO-1 (Acute Myeloid Leukemia)
Outline: as §1

[8] = tested on: ETK-1 (Biliary Tract Carcinoma)
Outline: as §1

HuO9 (Osteosarcoma) = tested on: HuO9 (Osteosarcoma)
Outline: as §1

[9] = tested on: JHH-6 (Hepatocellular Carcinoma)
Outline: as §1

CS1 (Chondrosarcoma) = tested on: CS1 (Chondrosarcoma)
Outline: as §1

MCF7 (Breast Carcinoma) = tested on: MCF7 (Breast Carcinoma)
Outline: as §1

[10] = tested on: SK-LMS-1 (Other Solid Carcinomas)
Outline: as §1

[11] = tested on: HOP-92 (Non-Small Cell Lung Carcinoma)
Outline: as §1

[12] = tested on: MES-SA (Other Solid Carcinomas)
Outline: as §1

[13] = tested on: PA-TU-8902 (Pancreatic Carcinoma)
Outline: as §1

[14] = tested on: EKVX (Non-Small Cell Lung Carcinoma)
Outline: as §1

SK-MEL-1 (Melanoma) = tested on: SK-MEL-1 (Melanoma)
Outline: as §1

Structure (SMILES) | Bliss excess [1] | Bliss excess [2] | Bliss excess [3] | Bliss excess [4] | Bliss excess (HCC38 (Breast Carcinoma)) | Bliss excess [5] | Bliss excess [6] | Bliss excess (MSTO-211H (Mesothelioma)) | Bliss excess [7] | Bliss excess [8] | Bliss excess (HuO9 (Osteosarcoma)) | Bliss excess [9] | Bliss excess (CS1 (Chondrosarcoma)) | Bliss excess (MCF7 (Breast Carcinoma)) | Bliss excess [10] | Bliss excess [11] | Bliss excess [12] | Bliss excess [13] | Bliss excess [14] | Bliss excess (SK-MEL-1 (Melanoma))
Cc1cc2ncnn2cc1Nc1ncc2c(n1)n(C1CCOCC1)c(=O)n2C [AZD7648] + C[C@@H]1COCCN1C2=NC(=NC(=C2)C3(CC3)[S@](=N)(=O)C)C4=C5C=CNC5=NC=C4 [AZD6738] (first compound max 10 µM, 7x7, partner max 10 µM) | -0.0217 | -0.0473 | -0.1 | 0.0421 | 0.0245 | -0.0024 | 0.0136 | 0.0403 | 0.0248 | -0.0173 | -0.0537 | 0.036 | 0.0024 | -0.0192 | 0.0215 | 0.0104 | 0.0541 | 0.0186 | 0.0353 | -0.0388
Cc1cc2ncnn2cc1Nc1ncc2c(n1)n(C1CCOCC1)c(=O)n2C [AZD7648] + CN(C)CCCOc1ccc(-c2ccc3ncc4c(c3c2)n(C2CCOCC2)c(=O)n4C)cn1 [AZD0156] (first compound max 10 µM, 7x7, partner max 1 µM) | 0.0073 | -0.0108 | -0.0339 | -0.0119 | 0.0157 | -0.0155 | 0.0029 | 0.0388 | 0.0371 | -0.0041 | 0.0522 | -0.0033 | -0.0028 | -0.0048 | 0.0028 | -0.0136 | 0.0228 | -0.0013 | 0.0001 | -0.0082
CN(CCO)CC[C@H](CSc1ccccc1)Nc1ccc(S(=O)(=O)NC(=O)c2ccc(N3CCC([C@@H](O)c4ccccc4-c4ccc(Cl)cc4)CC3)cc2)cc1S(=O)(=O)C(F)(F)F [AZD4320] + Cc1cc2ncnn2cc1Nc1ncc2c(n1)n(C1CCOCC1)c(=O)n2C [AZD7648] (first compound max 1 µM, 7x7, partner max 10 µM) | -0.0007 | 0.0304 | 0.0051 | -0.0265 | -0.0694 | 0.0526 | 0.0024 | -0.0237 | 0.0103 | -0.0639 | 0.0482 | -0.024 | -0.02 | -0.0357 | 0.001 | -0.0034 | -0.0399 | -0.0429 | -0.0398 | -0.025
CN(C)CCCOc1ccc(-c2ccc3ncc4c(c3c2)n(C2CCOCC2)c(=O)n4C)cn1 [AZD0156] + C=CCn1c(=O)c2cnc(Nc3ccc(N4CCN(C)CC4)cc3)nc2n1-c1cccc(C(C)(C)O)n1 [AZD1775] (first compound max 1 µM, partner max 1 µM) | -0.0562 | 0.0032 | -0.0408 | -0.0567 | -0.0963 | -0.0194 | -0.0033 | 0.0099 | 0.004 | -0.0096 | -0.0017 | -0.0798 | -0.0392 | -0.0338 | -0.0203 | -0.0522 | 0.0372 | -0.0339 | -0.0358 | 0.0161
CC1(C)CCC(CN2CCN(c3ccc(C(=O)NS(=O)(=O)c4ccc(NCC5CCOCC5)c([N+](=O)[O-])c4)c(Oc4cnc5[nH]ccc5c4)c3)CC2)=C(c2ccc(Cl)cc2)C1 [Venetoclax] + Cc1cc2ncnn2cc1Nc1ncc2c(n1)n(C1CCOCC1)c(=O)n2C [AZD7648] (first compound max 1 µM, 7x7, partner max 10 µM) | -0.0516 | -0.0249 | -0.051 | -0.0046 | -0.007 | 0.0848 | 0.0457 | -0.0564 | 0.02 | 0.0273 | 0.0557 | -0.0302 | -0.0949 | -0.0267 | -0.0292 | -0.0194 | -0.0384 | -0.0715 | -0.0788 | -0.0242
CCN(CCO)CCCOc1ccc2c(Nc3cc(CC(=O)Nc4cccc(F)c4)[nH]n3)ncnc2c1 [AZD2811] + C=CCn1c(=O)c2cnc(Nc3ccc(N4CCN(C)CC4)cc3)nc2n1-c1cccc(C(C)(C)O)n1 [AZD1775] (first compound max 1 µM, partner max 1 µM) | -0.0356 | -0.0323 | 0.0452 | -0.0883 | -0.0672 | 0.0591 | -0.006 | 0.0387 | 0.0412 | 0.0395 | 0.0204 | 0.0092 | 0.0264 | 0.0165 | 0.0502 | -0.0161 | 0.0752 | -0.006 | -0.0599 | -0.0323
CCc1c2c(nc3ccc(O)cc13)-c1cc3c(c(=O)n1C2)COC(=O)[C@]3(O)CC [SN-38] + CN(C)CCCOc1ccc(-c2ccc3ncc4c(c3c2)n(C2CCOCC2)c(=O)n4C)cn1 [AZD0156] (first compound max 0.3 µM, 7x7, partner max 1 µM) | -0.0353 | -0.0413 | -0.024 | -0.0268 | -0.0453 | -0.0585 | -0.0222 | 0.0527 | 0.034 | 0.0083 | 0.0365 | -0.0159 | -0.0016 | -0.0388 | 0.0274 | 0.027 | -0.0316 | 0.0406 | -0.0142 | -0.0583
Cc1c2c(nn1C)CSCc1cc(n(C)n1)CSc1cc(c3ccccc3c1)OCCCc1c(C(=O)O)n(C)c3c-2c(Cl)ccc13 [AZD5991] + C1CN(CCC1(C(=O)N[C@@H](CCO)C2=CC=C(C=C2)Cl)N)C3=NC=NC4=C3C=CN4 [Capivasertib] (first compound max 1 µM, 7x7, partner max 3 µM) | -0.0065 | -0.0122 | 0.0094 | 0.0579 | 0.0062 | -0.0164 | 0.015 | -0.0066 | 0.0814 | -0.0525 | 0.0085 | -0.0163 | -0.0261 | 0.0778 | 0.0054 | -0.0294 | -0.0144 | -0.041 | -0.015 | -0.0373
COc1cccc2c1C(=O)c1c(O)c3c(c(O)c1C2=O)C[C@@](O)(C(=O)CO)C[C@@H]3O[C@H]1C[C@H](N)[C@H](O)[C@H](C)O1 [Doxorubicin] + Cc1cc2ncnn2cc1Nc1ncc2c(n1)n(C1CCOCC1)c(=O)n2C [AZD7648] (first compound max 1 µM, 7x7, partner max 10 µM) | 0.0194 | 0.0698 | 0.0461 | -0.0216 | 0.0206 | 0.0044 | 0.0172 | 0.115 | 0.128 | 0.0878 | 0.0731 | 0.0476 | 0.0851 | 0.058 | 0.0633 | 0.0271 | 0.0696 | 0.0081 | 0.0083 | 0.0138
CN(CCO)CC[C@H](CSc1ccccc1)Nc1ccc(S(=O)(=O)NC(=O)c2ccc(N3CCC([C@@H](O)c4ccccc4-c4ccc(Cl)cc4)CC3)cc2)cc1S(=O)(=O)C(F)(F)F [AZD4320] + C=CCn1c(=O)c2cnc(Nc3ccc(N4CCN(C)CC4)cc3)nc2n1-c1cccc(C(C)(C)O)n1 [AZD1775] (first compound max 1 µM, partner max 1 µM) | 0.104 | 0.0516 | -0.0122 | 0.0171 | 0.0723 | 0.108 | 0.0959 | 0.0585 | 0.0233 | -0.0295 | 0.0484 | -0.0095 | -0.0017 | -0.0008 | 0.0447 | 0.101 | -0.0017 | -0.0357 | -0.0382 | -0.0091
Cc1cc2ncnn2cc1Nc1ncc2c(n1)n(C1CCOCC1)c(=O)n2C [AZD7648] + C=CCn1c(=O)c2cnc(Nc3ccc(N4CCN(C)CC4)cc3)nc2n1-c1cccc(C(C)(C)O)n1 [AZD1775] (first compound max 10 µM, partner max 1 µM) | 0.0527 | -0.0209 | -0.0959 | 0.0338 | -0.0124 | -0.0652 | -0.0094 | 0.067 | 0.0204 | -0.0144 | -0.0298 | 0.011 | 0.0046 | 0.0442 | -0.0661 | -0.0022 | -0.0182 | 0.0152 | 0.0061 | -0.0561
CN(CCO)CC[C@H](CSc1ccccc1)Nc1ccc(S(=O)(=O)NC(=O)c2ccc(N3CCC([C@@H](O)c4ccccc4-c4ccc(Cl)cc4)CC3)cc2)cc1S(=O)(=O)C(F)(F)F [AZD4320] + CN(C)CCCOc1ccc(-c2ccc3ncc4c(c3c2)n(C2CCOCC2)c(=O)n4C)cn1 [AZD0156] (first compound max 1 µM, 7x7, partner max 1 µM) | -0.0467 | -0.0262 | -0.0353 | -0.0468 | -0.0504 | 0.0215 | 0.0127 | 0.0078 | 0.0017 | -0.0509 | 0.0143 | -0.0367 | -0.0477 | -0.051 | -0.0477 | -0.0014 | -0.0315 | -0.0511 | -0.0392 | -0.0254
